According to the METLIN SMRT retention time set (Domingo-Almenara et al. 2019):

Assay: gradient 5% acetonitrile 3 min, to 50% in 2 min, to 85% in 15 min, held 3 min, 100 µL/min
Details: column: Zorbax Extend-C18 2.1 x 50 mm; eluents: water / acetonitrile, 0.1% formic acid
Summary of the method: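 Standards, all pure, were combined into mixtures of ~100 molecules and run at 100 μL/min on a Zorbax Extend-C18 column (2.1 × 50 mm, 1.8 μm) with water and acetonitrile, each containing 0.1% formic acid. A coupled quadrupole time-of-flight mass spectrometer operated in positive and negative ionization mode. Retention time values come from computationally picked adduct peaks, each inspected manually.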

Row | Structure (SMILES) | RP-LC retention time [s]
1 | COCC(=O)NC1CCC12CCN(C(=O)C(C)C)CC2 (stereo not drawn) | 636
2 | Cc1cc(N2CCN(C)CC2)nc2ccc(NC(=S)N(C)Cc3ccccc3)cc12 | 592
3 | COc1cccc(-c2noc(Cn3c(=O)n(C(C)C)c(=O)c4ccccc43)n2)c1 | 1110
4 | CC1(c2ccccc2)CC(C)(C)N(C(=O)CN2CCOCC2)c2ccccc21 (stereo not drawn) | 744
5 | CCCN1CCN(C(=O)C(C)C2CCN(C(=O)c3[nH]c(C)c(C(=O)OCC)c3C)CC2)CC1 (stereo not drawn) | 620
6 | Cc1cccc(Oc2nccnc2N2CCC(C(=O)NC(C)c3ccccc3)CC2)c1 (stereo not drawn) | 1020
7 | COCCN1CCCCc2cc(C(N)=O)sc21 | 708
8 | O=C(NCCc1csc(-c2cccs2)n1)C1CCN(S(=O)(=O)c2cccs2)CC1 | 852
9 | O=C(Cc1cccs1)Nc1nnc(-c2ccccc2Cl)s1 | 845
10 | CSc1ccccc1-c1nnc(NC(=O)C(c2ccccc2)c2ccccc2)o1 | 895
11 | Cc1csc(-c2ccc(N3CCN(C(=O)c4ccncc4)CC3)nc2)n1 | 632
12 | COc1ccc(-c2c(C)noc2NC(C)=O)cc1S(=O)(=O)N1CCc2ccccc21 | 784
13 | O=C(CN1CCN(c2ccccn2)CC1)N1c2ccccc2CCc2ccccc21 | 636
14 | Cc1ccc(C)c(C(=O)NCCc2cn(CC(C)C)c3ncccc23)c1 | 892
15 | COC(=O)c1ccc2c(=O)n(-c3ccc(OC)c(OC)c3)c(N3CCCC3)nc2c1 | 751
16 | CC(C)n1c(N2CCCN(C(=O)COc3ccccc3)CC2)cc(=O)n(C(C)C)c1=O | 843
17 | Cc1ccccc1-c1noc(Cn2c(=O)n(Cc3ccc(F)cc3)c(=O)c3sccc32)n1 | 1150
18 | O=C(NCCc1csc(-c2ccc(F)cc2)n1)Nc1ccccc1C(F)(F)F | 948
19 | COc1ccc(Nc2c(-c3ccc(N4CCOCC4)cc3)nc3ncccn23)cc1OC | 619
20 | CN1C(=O)CSc2cnn(CC(=O)N3CCN(c4ccc(F)cc4)CC3)c(=O)c21 | 706
21 | CC(C)(Cc1ccc2ccccc2c1)NC[C@@H](O)COc1cccc(Cl)c1C#N | 857
22 | COC(=O)c1ncn2c1C(=O)N(Cc1cccc(F)c1)C(C)(C(=O)NCc1ccccc1)C2 (stereo not drawn) | 729

Row | Structure (SMILES) | RP-LC retention time [s]
23 | O=C(Nc1cccc(F)c1)N1CCN(c2cnn3c(C4CC4)nnc3c2)CC1 | 663
24 | Cc1nn(CC(=O)NCCN2CCOCC2)c(=O)c2c(-n3cccc3)n(-c3ccc(Cl)cc3)nc12 | 704
25 | Cc1csc(-c2cc(S(=O)(=O)NCCCc3ccccc3)c(C)s2)n1 | 1080
26 | CC(C)NC(=O)N1CCC(c2nc3cccnc3n2C)C1 (stereo not drawn) | 572
27 | COc1ccc(-c2nn3c(COc4ccc(Br)cc4)nnc3s2)cc1OC | 980
28 | COc1ccc(NC(=O)c2cc(S(=O)(=O)N3CCC(C)CC3)cn2C)c(OC)c1 | 1020
29 | Cc1ccc(-c2csc(-n3nc(C)c(CC(=O)Nc4cc(Cl)ccc4C)c3C)n2)cc1 | 982
30 | Cc1cc(C(=O)NCc2ccc(F)cc2F)nc2cc(-c3cccs3)nn12 | 1140
31 | COCCCNC(=O)c1ccc(OCc2nnc(C(=O)Nc3ccccc3F)s2)cc1 | 806
32 | Cc1ccc(NC(=O)N2CCN(C3=CC4=NCC(C)N4C=N3)CC2)c(C)c1 (stereo not drawn) | 623
33 | COc1ccc(CNC(=O)Cc2nnc(-c3ccccn3)o2)c(OC)c1 | 696
34 | Cc1cccc(OCCn2c(CCO)nc3ccccc32)c1C | 599
35 | CCCc1ccc(S(=O)(=O)N2CC=C(c3cn(C)c4ncccc34)CC2)cc1 | 1030
36 | CC1CCN(CCNC(=O)c2nnc(-c3ccc(S(=O)(=O)N(C)C)cc3)o2)CC1 | 606
37 | Cc1nn(-c2nc(-c3ccc(F)cc3)cs2)c(C)c1CC(=O)Nc1ccccc1Cl | 1230
38 | CN(C)S(=O)(=O)c1ccc(COc2ccc(F)cc2)o1 | 875
39 | COc1ccc2[nH]c(I)c(CCNC(C)=O)c2c1 | 760
40 | CNC(=O)CCc1cc2cc(C)ccc2[nH]c1=O | 623
41 | Cc1ccc(NC(=O)CN2C(=O)NC3(CCCCC3)C2=O)cc1 | 760
42 | Cc1cccc(-c2nnc(C)c(N3CCOCC3)n2)c1 | 645
43 | CCNC(=O)CCc1nc2ccccc2n(CC(=O)Nc2ccc(OCC)cc2)c1=O | 775
44 | CCn1c(=O)sc2cc(S(=O)(=O)N3CCC(C(=O)N4CCCC4)CC3)ccc21 | 761

Row | Structure (SMILES) | RP-LC retention time [s]
45 | CC(C)Cn1c(=O)c(N2CCN(C(=O)NCc3ccccc3)CC2)nc2ccncc21 | 572
46 | O=C(N1CCC(NS(=O)(=O)Cc2ccccc2F)CC1)N1C[C@H]2C[C@H](C1)[C@H]1CCCC(=O)N1C2 | 689
47 | CCC(=O)N1CCc2c(C(=O)N3CCN(c4cc(C)ccc4C)CC3)cccc21 | 1040
48 | O=C(NCc1ccco1)c1csc(N2CCN(c3cccc(Cl)c3)CC2)n1 | 1080
49 | CCN1CCN(Cc2ccc(C(=O)NCc3ccccc3C(F)(F)F)cc2)C(=O)C1=O | 721
50 | COc1ccc(CCNC(=O)C2=C3CCCN3c3ccccc3S2(=O)=O)cc1OC | 765
51 | Cc1noc2nc(CCC(=O)NCc3ccccn3)nc(N3CC(C)CC(C)C3)c12 (stereo not drawn) | 690
52 | CC1CCN(C(=O)CSCC(=O)Nc2nc(-c3ccc4c(c3)OCO4)cs2)CC1 | 890
53 | O=c1n(Cc2cccc(C(F)(F)F)c2)nc2ccc(S(=O)(=O)N3CCCCC3)cn12 | 1030
54 | CC1CCC(NC(=O)C2CCCN(C(=O)c3cc(-c4ccncc4)n[nH]3)C2)CC1 (stereo not drawn) | 632
55 | COc1ccc(NC(=O)Nc2cc(F)c3nc(N4CCOCC4)ccc3c2)cc1OC | 938
56 | O=C(NC1CCCCC1)C1CCN(S(=O)(=O)c2cc(C(=O)N3CCCCCC3)cs2)CC1 | 902
57 | CCN(CC)CCOC(=O)C(c1ccccc1)C1CCCCC1 (stereo not drawn) | 882
58 | Cc1cccc(-c2nc3sc(N4CCCCC4)nn3c2NC(=O)C2CC2)c1 | 891
59 | O=C(NCc1csc(-c2ccccc2)n1)C1CCN(S(=O)(=O)c2ccc3c(c2)CCCC3)CC1 | 1100
60 | Cc1cc(C(=O)NCC2Cn3cccc3C(=O)N2C)n(C)n1 (stereo not drawn) | 600
61 | Cc1cnn(CCC(=O)N2CC(n3cc(COc4ccc(F)cc4)nn3)C2)c1 | 712
62 | Cc1ccc(CN(CC(=O)N2CCNCC2)C(=O)c2sccc2C)cc1C | 669
63 | O=C(Cc1c[nH]c2ccccc12)N1CCCN(c2cc(-c3ccc(Br)cc3)[nH]n2)CC1 | 722
64 | CCc1nc(OCC(=O)Nc2ccc(Br)cc2)c2ccccc2n1 | 874
65 | Cc1ccc(-c2noc(C3CC3)n2)cc1S(=O)(=O)N1CCC(C(=O)Nc2ncccc2C)CC1 | 768
66 | COc1ccc(CNC(=O)C2CN(S(=O)(=O)C3CC3)CC23CCCCC3)cc1 (stereo not drawn) | 891

Row | Structure (SMILES) | RP-LC retention time [s]
67 | O=C(CSC1=N/C(=C/c2ccc3c(c2)OCO3)C(=O)N1c1ccccc1)c1ccccc1 | 1100
68 | Cn1cnc(S(=O)(=O)N2CC(Oc3ccc(-c4noc(C5CC5)n4)cc3)C2)c1 | 794
69 | COc1ccc(C)cc1NC(=O)N1C[C@@H]2C[C@H]1C[C@@H]2NC(=O)c1cccs1 | 819
70 | CCCNC(=O)CC1=C2CCCCC2NC1=O (stereo not drawn) | 618
71 | O=C(Cn1cccc1-c1nc(-c2ccc3c(c2)OCO3)no1)Nc1ccccc1 | 1140
72 | CN1c2cc(C(=O)Nc3cccc(C(F)(F)F)c3)ccc2C(=O)N2CCCCC21 (stereo not drawn) | 930
73 | COc1ccc(Cl)cc1NC(=O)CN1C(=O)NC2(CCCCC2C)C1=O (stereo not drawn) | 838
74 | CCCCCNC(=O)CCc1nnc2c3cc(-c4ccc(C)c(C)c4)nn3ccn12 | 872
75 | COCCn1cc(C(=O)Nc2ccccc2F)c2nn(-c3ccccc3)c(=O)c-2c1 | 880
76 | Cc1ccc(-c2nnc(-c3cccc(S(=O)(=O)NC(C)C)c3)o2)cc1 | 984
77 | O=C(NCC(O)(c1ccccc1)C(F)(F)F)NC1CCCCC1 (stereo not drawn) | 879
78 | COc1cc(OC)cc(C(=O)N2CCN(c3cc(C)n4c(C)nnc4n3)CC2)c1 | 601
79 | CCOc1ccc(NC(=O)Nc2nccn(-c3cc(Cl)ccc3C)c2=O)cc1 | 1060
80 | COCCN1CCn2cc(S(=O)(=O)Nc3ccc(OC)cc3)cc2C1=O | 662
81 | Cc1nn(-c2ccc(-c3ccccc3)nn2)c(C)c1S(=O)(=O)Nc1ccc2c(c1)OCCO2 | 978
82 | COc1ccc(CC(=O)NC(C(=O)Nc2nc3ccccc3[nH]2)C(C)C)cc1Cl (stereo not drawn) | 733
83 | O=C(Nc1ccc(S(=O)(=O)Nc2nccs2)cc1)c1sc2ccccc2c1Cl | 799
84 | CCN1CCN(CCNC(=O)c2ccc(-c3ccc4c(c3)CCN4C(C)=O)cc2)CC1 | 598
85 | Cc1nn(C(C)C(=O)NC2CCCCC2)c(=O)c2c(C)n(-c3ccccc3)nc12 (stereo not drawn) | 946
86 | CCOc1cc(CNC(=O)C2=Cc3cc(OC)ccc3OC2)ccc1OC | 873
87 | COc1ccc(NC(=O)C2CN(S(C)(=O)=O)CC23CCCCC3)cc1 (stereo not drawn) | 852
88 | CN(C)c1cnc(-n2cc(NC(=O)c3ccc(C(F)(F)F)cc3)cn2)nc1 | 833
